From US10472356B2, “Bicyclic ketone sulfonamide compounds” (AMGEN INC., priority 2015, dated 2019)

What was measured:
human Nav1.7 [1] = target: T1, human Nav1.7 (Homo sapiens, UniProt Q15858); assay: Nav 1.7 In Vitro PatchXpress (PX) Assay; type: cell-based; conditions: HEK 293 cells stably transfected with human Nav1.7; PatchXpress whole cell voltage clamp; partially inactivated state (holding potential yielding 20 to 50% inactivation); read-out: hNav1.7 PX IC50
T1 construct: expressed in transfected cells; host or cells: HEK293
T1 sequence (Q15858 whole entry): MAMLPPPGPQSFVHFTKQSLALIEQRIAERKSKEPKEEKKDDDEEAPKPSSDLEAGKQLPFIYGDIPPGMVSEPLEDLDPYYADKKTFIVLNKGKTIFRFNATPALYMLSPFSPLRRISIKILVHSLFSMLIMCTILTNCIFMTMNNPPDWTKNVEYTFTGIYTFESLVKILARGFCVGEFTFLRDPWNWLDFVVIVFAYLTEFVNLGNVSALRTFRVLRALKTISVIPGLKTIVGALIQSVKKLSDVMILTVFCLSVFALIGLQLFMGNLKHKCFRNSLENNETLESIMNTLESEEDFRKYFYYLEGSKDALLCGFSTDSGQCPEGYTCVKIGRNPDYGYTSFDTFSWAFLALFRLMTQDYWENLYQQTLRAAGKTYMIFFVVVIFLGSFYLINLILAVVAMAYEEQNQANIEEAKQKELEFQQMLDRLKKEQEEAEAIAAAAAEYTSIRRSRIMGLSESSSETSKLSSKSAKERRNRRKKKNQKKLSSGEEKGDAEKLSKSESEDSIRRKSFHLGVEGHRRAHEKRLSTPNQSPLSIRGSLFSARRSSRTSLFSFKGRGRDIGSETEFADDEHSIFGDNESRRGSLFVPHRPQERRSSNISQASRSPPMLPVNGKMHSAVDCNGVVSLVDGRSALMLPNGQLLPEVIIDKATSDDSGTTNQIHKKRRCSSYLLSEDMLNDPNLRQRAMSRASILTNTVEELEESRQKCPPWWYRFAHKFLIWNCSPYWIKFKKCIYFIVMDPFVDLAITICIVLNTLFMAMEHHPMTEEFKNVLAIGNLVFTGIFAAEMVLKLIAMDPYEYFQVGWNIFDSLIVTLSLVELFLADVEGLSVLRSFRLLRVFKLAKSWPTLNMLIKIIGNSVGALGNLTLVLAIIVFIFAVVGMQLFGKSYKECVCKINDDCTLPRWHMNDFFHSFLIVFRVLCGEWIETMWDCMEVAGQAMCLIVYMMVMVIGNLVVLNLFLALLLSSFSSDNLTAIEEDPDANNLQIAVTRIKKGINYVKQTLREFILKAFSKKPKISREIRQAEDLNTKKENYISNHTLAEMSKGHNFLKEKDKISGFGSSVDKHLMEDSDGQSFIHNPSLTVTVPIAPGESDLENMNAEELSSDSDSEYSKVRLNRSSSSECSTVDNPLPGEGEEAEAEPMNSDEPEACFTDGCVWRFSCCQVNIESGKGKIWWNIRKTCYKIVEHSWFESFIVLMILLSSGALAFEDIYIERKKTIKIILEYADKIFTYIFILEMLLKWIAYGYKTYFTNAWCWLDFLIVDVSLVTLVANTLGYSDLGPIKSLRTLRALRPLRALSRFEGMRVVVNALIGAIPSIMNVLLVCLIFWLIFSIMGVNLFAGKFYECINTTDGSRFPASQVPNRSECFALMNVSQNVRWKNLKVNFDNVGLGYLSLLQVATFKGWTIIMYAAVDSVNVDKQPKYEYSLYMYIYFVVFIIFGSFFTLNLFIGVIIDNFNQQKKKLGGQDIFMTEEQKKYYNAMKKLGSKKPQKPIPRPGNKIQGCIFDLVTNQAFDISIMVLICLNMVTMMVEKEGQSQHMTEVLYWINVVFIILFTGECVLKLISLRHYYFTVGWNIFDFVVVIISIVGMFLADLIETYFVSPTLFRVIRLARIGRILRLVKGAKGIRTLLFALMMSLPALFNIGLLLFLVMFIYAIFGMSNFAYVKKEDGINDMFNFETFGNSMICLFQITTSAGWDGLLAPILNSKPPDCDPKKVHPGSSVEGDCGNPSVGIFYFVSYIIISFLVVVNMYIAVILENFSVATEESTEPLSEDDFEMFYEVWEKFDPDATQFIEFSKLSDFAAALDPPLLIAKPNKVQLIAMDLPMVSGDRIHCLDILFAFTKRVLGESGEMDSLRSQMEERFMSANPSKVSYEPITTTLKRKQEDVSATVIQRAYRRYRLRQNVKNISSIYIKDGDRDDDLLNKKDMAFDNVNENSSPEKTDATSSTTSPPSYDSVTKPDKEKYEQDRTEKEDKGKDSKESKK
Method: Nav 1.7 In Vitro PatchXpress (PX) Assay
HEK 293 cells stably transfected with human Nav1.7 were recorded in whole cell voltage clamp mode with the PatchXpress automated electrophysiology system (Molecular Devices, LLC, Sunnyvale, Calif.). Compound effects were measured on a partially inactivated state of the sodium channel. Cells were clamped to a holding potential yielding 20 to 50% inactivation. To elicit sodium current, channels were activated by pulsing to −10 mV for 20 msec. This voltage protocol was repeated at a rate of 0.1 Hz throughout the experiment. A single concentration of test compound was applied to cells for a duration of 3 minutes. Peak sodium current was measured at the end of the compound addition period to determine percent inhibition. Three to five cells were tested per concentration, and IC50 curves were fitted to percent inhibition as a function of concentration.

human Nav1.7 [2] = target: T1, human Nav1.7; assay: Nav 1.7 IWB In Vitro Assay (IonWorks Barracuda); type: cell-based; conditions: HEK293 cells stably transfected with human Nav 1.7; IonWorks Barracuda population patch-clamp; cells clamped to −20 mV for 4 minutes with compound; 26th pulse; read-out: hNav1.7 IWB IC50
Method: Nav 1.7 IWB In Vitro Assay
HEK293 cells stably transfected with human Nav 1.7 were recorded in population patch-clamp mode with the IonWorks© Barracuda (IWB) automated electrophysiology system (Molecular Devices, LLC, Sunnyvale, Calif.). From a holding potential of −110 mV, sodium currents were elicited by a train of 26 depolarizations of 150 ms duration to −20 mV at a frequency of 5 Hz. Cells were then clamped to −20 mV for a period of 4 minutes in the presence of a single concentration of test compound. Following this compound incubation period, cells were clamped to −110 mV for three seconds to recover unbound channels and put through the same 26 pulse voltage protocol as above. Peak inward current during the 26th pulse to −20 mV in the presence of compound was divided by the peak inward current evoked by the 26th pulse to −20 mV in the absence of compound to determine percent inhibition. Concentration-response curves of percent inhibition as a function of concentration were generated to calculate IC50 values.

Row | Structure (SMILES) | IC50 (human Nav1.7 [1]) | IC50 (human Nav1.7 [2])
1 | COc1cc(-c2ccc(F)c(C)c2)c(F)cc1-n1c2c(ccc1=O)CN(S(=O)(=O)Nc1ccon1)CC2 (racemic) [Example 22-(Rac), (Rac)-1-(2,4′-difluoro-5-methoxy-3′-methyl-4-biphenylyl)-N-3-isoxazolyl-2-oxo-1,5,7,8-tetrahydro-1,6-naphthyridine-6(2H)-sulfonamide] | 255 nM | –
2 | COc1cc(-c2cc(F)cc(F)c2)c(F)cc1-n1c2c(ccc1=O)CN(S(=O)(=O)Nc1ccon1)CC2 (racemic) [Example 25-(Rac), (Rac)-N-3-isoxazolyl-2-oxo-1-(2,3′,5′-trifluoro-5-methoxy-4-biphenylyl)-1,5,7,8-tetrahydro-1,6-naphthyridine-6(2H)-sulfonamide] | 209 nM | –
3 | COc1cc(C(F)(F)F)ccc1-n1c2c(ccc1=O)CN(S(=O)(=O)Nc1ccon1)CC2 (racemic) [Example 26-(Rac), (Rac)-N-3-isoxazolyl-1-(2-methoxy-4-(trifluoromethyl)phenyl)-2-oxo-1,5,7,8-tetrahydro-1,6-naphthyridine-6(2H)-sulfonamide] | > 1000 nM | –
4 | COc1ccccc1-n1c2c(ccc1=O)CN(S(=O)(=O)Nc1ccon1)CC2 (racemic) [Example 27, (Rac)-N-3-isoxazolyl-1-(2-methoxyphenyl)-2-oxo-1,5,7,8-tetrahydro-1,6-naphthyridine-6(2H)-sulfonamide] | > 1000 nM | –
5 | COc1cc(Br)c(F)cc1-n1c2c(ccc1=O)CN(S(=O)(=O)Nc1ncccn1)CC2 (racemic) [Preparation 8a, 1-(4-bromo-5-fluoro-2-methoxyphenyl)-2-oxo-N-2-pyrimidinyl-1,5,7,8-tetrahydro-1,6-naphthyridine-6(2H)-sulfonamide] | – | 4240 nM
6 | COc1cc(Br)c(F)cc1-n1c2c(ccc1=O)CN(S(=O)(=O)Nc1cccnn1)CC2 (racemic) [Preparation 8b, 1-(4-bromo-5-fluoro-2-methoxyphenyl)-2-oxo-N-3-pyridazinyl-1,5,7,8-tetrahydro-1,6-naphthyridine-6(2H)-sulfonamide] | – | 1120 nM
7 | COc1cc(Br)c(Cl)cc1-n1c2c(ccc1=O)CN(S(=O)(=O)Nc1ccon1)CC2 (racemic) [Preparation 8c, 1-(4-bromo-5-chloro-2-methoxyphenyl)-N-3-isoxazolyl-2-oxo-1,5,7,8-tetrahydro-1,6-naphthyridine-6(2H)-sulfonamide] | – | 2880 nM
8 | COc1cc(-c2cc(F)cc(Cl)c2)c(F)cc1-n1c2c(ccc1=O)CN(S(=O)(=O)Nc1cc(C)ncn1)CC2 (single isomer, unassigned) [Example 4-M, M-1-(3′-chloro-2,5′-difluoro-5-methoxy-4-biphenylyl)-N-(6-methyl-4-pyrimidinyl)-2-oxo-1,5,7,8-tetrahydro-1,6-naphthyridine-6(2H)-sulfonamide] | – | 8300 nM
9 | COc1cc(-c2cc(F)cc(Cl)c2)c(F)cc1-n1c2c(ccc1=O)CN(S(=O)(=O)Nc1ncns1)CC2 (single isomer, unassigned) [Example 5-M, M-1-(3′-chloro-2,5′-difluoro-5-methoxy-4-biphenylyl)-2-oxo-N-1,2,4-thiadiazol-5-yl-1,5,7,8-tetrahydro-1,6-naphthyridine-6(2H)-sulfonamide] | – | 726 nM
10 | COc1cc(-c2cc(F)cc(Cl)c2)c(F)cc1-n1c2c(ccc1=O)CN(S(=O)(=O)Nc1ccnc(C)n1)CC2 (single isomer, unassigned) [Example 6-M, M-1-(3′-chloro-2,5′-difluoro-5-methoxy-4-biphenylyl)-N-(2-methyl-4-pyrimidinyl)-2-oxo-1,5,7,8-tetrahydro-1,6-naphthyridine-6(2H)-sulfonamide] | – | 8820 nM
11 | COc1cc(-c2cc(F)cc(Cl)c2)ccc1-n1c2c(ccc1=O)CN(S(=O)(=O)Nc1ccon1)CC2 (single isomer, unassigned) [Example 7-M, M-1-(3′-chloro-5′-fluoro-3-methoxy-4-biphenylyl)-N-3-isoxazolyl-2-oxo-1,5,7,8-tetrahydro-1,6-naphthyridine-6(2H)-sulfonamide] | – | 1210 nM
12 | COc1cc(-c2cc(F)cc(Cl)c2)ccc1-n1c2c(ccc1=O)CN(S(=O)(=O)Nc1cccnn1)CC2 (single isomer, unassigned) [Example 8-M, M-1-(3′-chloro-5′-fluoro-3-methoxy-4-biphenylyl)-2-oxo-N-3-pyridazinyl-1,5,7,8-tetrahydro-1,6-naphthyridine-6(2H)-sulfonamide] | – | 2950 nM
13 | COc1cc(-c2cc(F)cc(F)c2)c(F)cc1-n1c2c(ccc1=O)CN(S(=O)(=O)Nc1cccc(F)n1)CC2 (single isomer, unassigned) [Example 14-M, M-N-(6-fluoro-2-pyridinyl)-2-oxo-1-(2,3′,5′-trifluoro-5-methoxy-4-biphenylyl)-1,5,7,8-tetrahydro-1,6-naphthyridine-6(2H)-sulfonamide] | – | 452 nM
14 | COc1cc(-c2cccc(C(F)(F)F)c2)c(F)cc1-n1c2c(ccc1=O)CN(S(=O)(=O)Nc1ccon1)CC2 (single isomer, unassigned) [Example 16-M, M-1-(2-fluoro-5-methoxy-3′-(trifluoromethyl)-4-biphenylyl)-N-3-isoxazolyl-2-oxo-1,5,7,8-tetrahydro-1,6-naphthyridine-6(2H)-sulfonamide] | – | 720 nM
15 | COc1cc(-c2ccc(Cl)c(C)c2)c(F)cc1-n1c2c(ccc1=O)CN(S(=O)(=O)Nc1ccon1)CC2 (single isomer, unassigned) [Example 24-M, M-1-(4′-chloro-2-fluoro-5-methoxy-3′-methyl-4-biphenylyl)-N-3-isoxazolyl-2-oxo-1,5,7,8-tetrahydro-1,6-naphthyridine-6(2H)-sulfonamide] | – | 462 nM
16 | COc1cc(-c2ccc(Cl)c(C)c2)c(F)cc1-n1c2c(ccc1=O)CN(S(=O)(=O)Nc1cccnn1)CC2 (single isomer, unassigned) [Example 33-M, M-1-(4′-chloro-2-fluoro-5-methoxy-3′-methyl-4-biphenylyl)-2-oxo-N-3-pyridazinyl-1,5,7,8-tetrahydro-1,6-naphthyridine-6(2H)-sulfonamide] | – | > 10000 nM
17 | COc1cc(C#CC2CCCC2)c(F)cc1-n1c2c(ccc1=O)CN(S(=O)(=O)Nc1ccon1)CC2 (single isomer, unassigned) [Example 34-M, M-1-(4-(cyclopentylethynyl)-5-fluoro-2-methoxyphenyl)-N-3-isoxazolyl-2-oxo-1,5,7,8-tetrahydro-1,6-naphthyridine-6(2H)-sulfonamide] | – | 9720 nM
18 | COc1cc(-c2cc(OC)c(-n3c4c(ccc3=O)CN(S(=O)(=O)Nc3ccon3)CC4)cc2F)ccc1C (single isomer, unassigned) [Example 58-M, M-1-(2-fluoro-3′,5-dimethoxy-4′-methyl-4-biphenylyl)-N-3-isoxazolyl-2-oxo-1,5,7,8-tetrahydro-1,6-naphthyridine-6(2H)-sulfonamide] | – | 1480 nM
19 | COc1cc(CCC(F)(F)F)c(Cl)cc1-n1c2c(ccc1=O)CN(S(=O)(=O)Nc1cccnn1)CC2 (single isomer, unassigned) [Example 96-M, M-1-(5-chloro-2-methoxy-4-(3,3,3-trifluoropropyl)phenyl)-2-oxo-N-(pyridazin-3-yl)-1,2,7,8-tetrahydro-1,6-naphthyridine-6(5H)-sulfonamide] | – | 856 nM
20 | COc1cc(Br)c(Cl)cc1-n1c2c(ccc1=O)CN(S(=O)(=O)Nc1ccon1)CC2 (single isomer, unassigned) [Preparation 8c-M, M-1-(4-bromo-5-chloro-2-methoxyphenyl)-N-3-isoxazolyl-2-oxo-1,5,7,8-tetrahydro-1,6-naphthyridine-6(2H)-sulfonamide] | – | > 25000 nM
21 | COc1cc(Br)c(Cl)cc1-n1c2c(ccc1=O)CN(S(=O)(=O)Nc1ccon1)CC2 (single isomer, unassigned) [Preparation 8c-P, P-1-(4-bromo-5-chloro-2-methoxyphenyl)-N-3-isoxazolyl-2-oxo-1,5,7,8-tetrahydro-1,6-naphthyridine-6(2H)-sulfonamide] | – | 768 nM
22 | COc1cc(Br)c(F)cc1-n1c2c(ccc1=O)CN(S(=O)(=O)Nc1ccncn1)CC2 (single isomer, unassigned) [Preparation 8f-M, M-1-(4-bromo-5-fluoro-2-methoxyphenyl)-2-oxo-N-(pyrimidin-4-yl)-1,2,7,8-tetrahydro-1,6-naphthyridine-6(5H)-sulfonamide] | – | > 25000 nM
23 | COc1cc(Br)c(F)cc1-n1c2c(ccc1=O)CN(S(=O)(=O)Nc1ccncn1)CC2 (single isomer, unassigned) [Preparation 8f-P, P-1-(4-bromo-5-fluoro-2-methoxyphenyl)-2-oxo-N-(pyrimidin-4-yl)-1,2,7,8-tetrahydro-1,6-naphthyridine-6(5H)-sulfonamide] | – | 193 nM
